Data set [1] relates to P. aeruginosa ATCC 27853. Briefly: MIC, broth dilution, P. aeruginosa. It counts as cell-based, Pseudomonas aeruginosa. Conditions: Pseudomonas aeruginosa, ATCC27853; P. aeruginosa ATCC 27853, 18 h; read-out: MIC Pa. In general terms: Dilution methods test growth across graded concentrations, often in twofold steps.
Data set [2] in a line: Cytotoxicity assay (resazurin). It counts as cell-based. The note with it: human, HEK293 cells, mean n = 2. Background: Alamar Blue is a resazurin reagent that responds to reducing activity.
The subject of data set [3] is E. coli ATCC 25922. In words: Erythromycin potentiation against E. coli. The data set is classed as cell-based, Escherichia coli. Conditions: erythromycin at 2 µg/mL (2.7 µM); for Erythro/Ec fold-change (intrinsic MIC / combination MIC): E. coli; for Erythro/Ec: concentration required to restore erythromycin activity (combination MIC): mean n = 3. An excerpt: (§1) These measurements were independently repeated in triplicate.

For data set [4], the system named is C. neoformans ATCC 208821. Briefly: Antifungal MIC (CO-ADD), C. neoformans. The data set is classed as cell-based. Conditions: Cryptococcus neoformans, ATCC208821, top dose 32 µg/mL. On the procedure: (§2) For the antifungal assay, fungi strains were cultured for 3 days on YPD agar at 30 °C. A yeast suspension of 1 × 10^6 to 5 × 10^6 CFU/mL was prepared from five colonies. These stock suspensions were diluted with a yeast nitrogen base (YNB) (Becton Dickinson, 233520, New South Wales, Australia) broth to a final concentration of 2.5 × 10^3 CFU/mL. […] The plates were covered and incubated at 35 °C for 36 h without shaking. C. albicans MICs were determined by measuring the absorbance at OD530. For C. neoformans, resazurin was added at a 0.006% final concentration to each well and incubated for a further 3 h before the MICs were determined by measuring the absorbance at OD570–600. […] Fluconazole was used as a positive fungal inhibitor standard for C. albicans and C. neoformans. […] The quality control (QC) of the assays was determined by the antimicrobial controls and the Z′-factor (using positive and negative controls).

Data set [5] concerns P. aeruginosa ATCC 27853. In words: Doxycycline potentiation against P. aeruginosa. The data set is classed as cell-based, Pseudomonas aeruginosa. The note with it: doxycycline at 2 µg/mL (4.5 µM); for Dox/Pa fold-change (intrinsic MIC / combination MIC): P. aeruginosa ATCC 27853; for Dox/Pa: concentration required to restore doxycycline activity (combination MIC): P. aeruginosa ATCC 27853, mean n = 3.
Excerpt: as §1

The next data set has as its system A. baumannii ATCC 19606. Briefly: MIC, broth microdilution (CO-ADD), A. baumannii. It counts as cell-based, Acinetobacter baumannii. Conditions: Acinetobacter baumannii, ATCC19606, top dose 32 µg/mL.
The subject of another data set is S. aureus ATCC 25923. Briefly: MIC, broth dilution, S. aureus. The note with it: Staphylococcus aureus, ATCC25923; S. aureus ATCC 25923, 18 h; read-out: MIC Sa. It counts as cell-based, Staphylococcus aureus.
In data set [6] the test system is K. pneumoniae ATCC 700603. In words: MIC, broth microdilution (CO-ADD), K. pneumoniae. Conditions: top dose 32 µg/mL.
The test system of data set [7] is E. coli ATCC 25922. Briefly: MIC, broth dilution, E. coli. The data set is classed as cell-based, Escherichia coli. Conditions: Escherichia coli, ATCC25922; E. coli ATCC 25922, 18 h.
For the next data set, the system named is human red blood cells. In words: Hemolytic assay. The data set is classed as cell-based. Conditions: 10% hemolytic activity, mean n = 2. As for the experimental part:
Human whole blood was washed three times with three volumes of 0.9% NaCl and then resuspended in the same solution to a concentration of 0.5 × 10^8 cells/mL, as determined by the manual cell count in a Neubauer hemocytometer. The washed cells were then added to the 384-well compound-containing plates for a final volume of 50 μL. After a 10 min shake on a plate shaker, the plates were then incubated for 1 h at 37 °C. After incubation, the plates were centrifuged at 1000× g for 10 min to pellet cells and debris; 25 μL of the supernatant was then transferred to a polystyrene 384-well assay plate. Hemolysis was determined by measuring the supernatant absorbance at […] (OD405). The absorbance was measured using a Tecan M1000 Pro monochromator plate reader. HC10 and HC50 (concentrations at 10% and 50% hemolysis, respectively) were calculated by a curve fitting the inhibition values vs. log (concentration) using a sigmoidal dose–response function with variable fitting values for the top, bottom, and slope.

The next data set relates to MRSA ATCC 43300. Briefly: MIC, broth microdilution (CO-ADD), MRSA. It counts as cell-based, methicillin-resistant S. aureus. Conditions: Staphylococcus aureus; MRSA ATCC 43300; top dose 32 µg/mL; read-out: MIC MRSA.
A further data set deals with C. albicans ATCC 90028. In words: Antifungal MIC (CO-ADD), C. albicans. Conditions: Candida albicans, ATCC90028, top dose 32 µg/mL. It counts as cell-based. On the procedure:
as §2

≈ marks a conversion by molar mass, not a printed value.

For orientation: MIC means the lowest concentration found to suppress growth. For orientation: IC50 means the concentration at which inhibition is half-maximal. Low values mean higher potency, high ones lower potency. For the molecule `O=C(NCCCNCCCCCCCCNCCCNC(=O)c1c[nH]c2ccc(Br)cc12)c1c[nH]c2ccc(Br)cc12` [Compound 13d], the MIC was 107 µM (≈ 75.2 µg/mL) with P. aeruginosa ATCC 27853 [1]; at most 0.27 µM in data set [4]; at most 0.27 µM in the data set on A. baumannii ATCC 19606; 3.36 µM (≈ 2.36 µg/mL) in the data set on S. aureus ATCC 25923; 53.7 µM (≈ 37.7 µg/mL) in the data set with E. coli ATCC 25922 [7]; at most 0.27 µM in the data set on MRSA ATCC 43300. In the data set on C. albicans ATCC 90028, the MIC is at most 0.27 µM. Besides, the IC50 at 20 h in data set [2] was above 34 µM. Also, the “Erythro/Ec fold-change (intrinsic MIC / combination MIC)” value in the data set with E. coli ATCC 25922 [3] came to 8 fold. For the same molecule, the “Erythro/Ec: concentration required to restore erythromycin activity (combination MIC)” value (“Erythro/Ec: concentration required” for short) in the data set with E. coli ATCC 25922 [3] is reported as 6.72 µM. In the data set with P. aeruginosa ATCC 27853 [5], the “Dox/Pa fold-change (intrinsic MIC / combination MIC)” value was found to be 8 fold. In addition, the “Dox/Pa: concentration required to restore doxycycline activity (combination MIC)” value (“Dox/Pa: concentration required” for short) in the data set on P. aeruginosa ATCC 27853 [5] came to 13.4 µM. Besides, the “MIC Kp” value in [6] is recorded as above 34 µM. Further, the “Hemolysis HC10” value in the data set on human red blood cells is listed as above 34 µM.

Turning to `COc1cccc2c(C(=O)NCCCNCCCCCCCNCCCNC(=O)c3c[nH]c4c(OC)cccc34)c[nH]c12.O=C(O)C(F)(F)F.O=C(O)C(F)(F)F` [Compound 17c], the minimal inhibitory concentration (MIC) with P. aeruginosa ATCC 27853 [1] is above 244 µM; in [4] it was at most 0.31 µM; with A. baumannii ATCC 19606 it was above 39 µM; in the data set with S. aureus ATCC 25923, 122 µM; in the data set with E. coli ATCC 25922 [7], 244 µM; with MRSA ATCC 43300, 2.44 µM. Moreover, the MIC in the data set with C. albicans ATCC 90028 was above 39 µM. This molecule also gave an IC50 at 20 h in data set [2] above 39 µM. For the same molecule, the “Erythro/Ec fold-change (intrinsic MIC / combination MIC)” value with E. coli ATCC 25922 [3] worked out at 1 fold. Besides, the “Erythro/Ec: concentration required” value in the data set with E. coli ATCC 25922 [3] is 244 µM. Moreover, the “Dox/Pa fold-change (intrinsic MIC / combination MIC)” value with P. aeruginosa ATCC 27853 [5] is above 8 fold. For the same molecule, in the data set on P. aeruginosa ATCC 27853 [5], the “Dox/Pa: concentration required” value is recorded as 30.5 µM. The “MIC Kp” value in [6] is given as above 39 µM. Also, in the data set on human red blood cells, the “Hemolysis HC10” value is reported as above 39 µM.

As for `Cc1cccc2c(C(=O)NCCCNCCCCCCCCCCCCNCCCNC(=O)c3c[nH]c4c(C)cccc34)c[nH]c12.O=C(O)C(F)(F)F.O=C(O)C(F)(F)F` [Compound 18f], the MIC in the data set with P. aeruginosa ATCC 27853 [1] is 117 µM; in [4] it was at most 0.29 µM; against A. baumannii ATCC 19606, 9.33 µM; in the data set with S. aureus ATCC 25923, 117 µM; with E. coli ATCC 25922 [7] it was 117 µM; in the data set on MRSA ATCC 43300 it was at most 0.29 µM. In the data set on C. albicans ATCC 90028, this molecule showed an MIC of at most 0.29 µM. The molecule also showed a concentration for half-maximal inhibition (IC50) at 20 h in data set [2] above 37 µM. Further, the “Erythro/Ec fold-change (intrinsic MIC / combination MIC)” value in the data set on E. coli ATCC 25922 [3] turned out to be 1 fold. The “Erythro/Ec: concentration required” value in the data set on E. coli ATCC 25922 [3] is 116.7 µM. Also, in the data set on P. aeruginosa ATCC 27853 [5], the “Dox/Pa fold-change (intrinsic MIC / combination MIC)” value was found to be 4 fold. Further, the “Dox/Pa: concentration required” value in the data set with P. aeruginosa ATCC 27853 [5] was 29.2 µM. Besides, the “MIC Kp” value in data set [6] is recorded as above 37 µM. Also, the “Hemolysis HC10” value in the data set on human red blood cells was above 37 µM.

`COc1cccc2c(C(=O)NCCCNCCCCCCCCCCNCCCNC(=O)c3c[nH]c4c(OC)cccc34)c[nH]c12.O=C(O)C(F)(F)F.O=C(O)C(F)(F)F` [Compound 17e]: the minimum inhibitory concentration (MIC) with P. aeruginosa ATCC 27853 [1] was above 232 µM; in data set [4] it was at most 0.29 µM; against A. baumannii ATCC 19606, above 37 µM; in the data set with S. aureus ATCC 25923, 232 µM; with E. coli ATCC 25922 [7] it was above 232 µM; in the data set with MRSA ATCC 43300, at most 0.29 µM. For the same molecule, in the data set on C. albicans ATCC 90028, the minimum inhibitory concentration (MIC) is above 37 µM. Further, the IC50 at 20 h in [2] was above 37 µM. In addition, the “Erythro/Ec fold-change (intrinsic MIC / combination MIC)” value with E. coli ATCC 25922 [3] is reported as 1 fold. Further, the “Erythro/Ec: concentration required” value in the data set on E. coli ATCC 25922 [3] is reported as above 232 µM. For the same molecule, the “Dox/Pa fold-change (intrinsic MIC / combination MIC)” value in the data set on P. aeruginosa ATCC 27853 [5] was above 4 fold. In addition, the “Dox/Pa: concentration required” value in the data set on P. aeruginosa ATCC 27853 [5] was 58.1 µM. Also, in data set [6], the “MIC Kp” value is above 37 µM. Moreover, in the data set on human red blood cells, the “Hemolysis HC10” value is listed as above 37 µM.

Consider `O=C(NCCCNCCCCCCCNCCCNC(=O)c1c[nH]c2ccc(Br)cc12)c1c[nH]c2ccc(Br)cc12` [Compound 13c], for which the MIC in the data set on P. aeruginosa ATCC 27853 [1] is 220 µM (≈ 151 µg/mL); in data set [4], at most 0.27 µM; with A. baumannii ATCC 19606, above 35 µM; with S. aureus ATCC 25923 it was 13.6 µM (≈ 9.36 µg/mL); with E. coli ATCC 25922 [7] it was 110 µM (≈ 75.7 µg/mL); with MRSA ATCC 43300 it was at most 0.27 µM. Also, the MIC against C. albicans ATCC 90028 was found to be 35 µM (≈ 24.1 µg/mL). In addition, in data set [2], the IC50 at 20 h is above 35 µM. Further, the “Erythro/Ec fold-change (intrinsic MIC / combination MIC)” value in the data set on E. coli ATCC 25922 [3] is 16 fold. Moreover, the “Erythro/Ec: concentration required” value in the data set with E. coli ATCC 25922 [3] worked out at 6.82 µM. Moreover, the “Dox/Pa fold-change (intrinsic MIC / combination MIC)” value with P. aeruginosa ATCC 27853 [5] is 16 fold. Moreover, in the data set with P. aeruginosa ATCC 27853 [5], the “Dox/Pa: concentration required” value was 13.6 µM. Moreover, the “MIC Kp” value in [6] is on record as above 35 µM. The “Hemolysis HC10” value with human red blood cells is given as above 35 µM.
